In ChEMBL document CHEMBL5126662, “Expanding the Ajudazol Cytotoxin Scaffold: Insights from Genome Mining, Biosynthetic Investigations, and Novel Derivatives” (J Nat Prod, 2022):
Active and inactive are the calls of the source.

Assays:
Type in all cases: functional, cell-based
Conditions in all cases: time 5.0 day
[1] = tested on: HepG2; test: Antiproliferative activity against human HepG2 cells assessed as reduction in cell viability after 5 days by MTT assay
[2] = tested on: HCT-116; test: Antiproliferative activity against human HCT-116 cells assessed as reduction in cell viability after 5 days by MTT assay
[3] = tested on: KB 3-1; test: Antiproliferative activity against human KB3.1 cells assessed as reduction in cell viability after 5 days by MTT assay

Measured: Activity

CC(C)=CC(=O)N(C)C/C=C/CC/C=C/C=C/C[C@@H](C)c1nc(C[C@@H](C)[C@H]2OC(=O)c3c(ccc(C)c3O)[C@@H]2O)co1
active: all assays above

CC(C)=CC(=O)N(C)C/C=C/CC/C=C/C=C/CC(O)(CO[C@@H]1O[C@H](CO)[C@@H](O)[C@H](O)[C@H]1O)c1nc(C[C@@H](C)[C@H]2OC(=O)c3c(ccc(C)c3O)[C@@H]2O)co1 (some centres undefined)
active: all assays above

C=C(C/C=C/C=C/CC/C=C/CN(C)C(=O)C=C(C)C)c1nc(C[C@@H](C)[C@H]2OC(=O)c3c(ccc(C)c3O)[C@@H]2O)co1
active: all assays above

CC(C)=CC(=O)N(C)C/C=C/CC/C=C/C=C/CC(O)(CO[C@@H]1O[C@H](CO)[C@@H](O)[C@@H]1O)c1nc(C[C@@H](C)[C@H]2OC(=O)c3c(ccc(C)c3O)[C@@H]2O)co1 (some centres undefined)
active: all assays above

CC(C)=CC(=O)N(C)C/C=C/CC/C=C/C=C/CC(O)(CO)c1nc(C[C@@H](C)[C@H]2OC(=O)c3c(ccc(C)c3O)[C@@H]2O)co1 (some centres undefined)
active: all assays above

C=C(C/C=C/C=C/CC/C=C/CN(C)C(=O)C=C(C)C)c1nc(C[C@@H](C)[C@H]2OC(=O)c3c(ccc(C)c3O)[C@@H]2O[C@@H]2O[C@H](CO)[C@@H](O)[C@H](O)[C@H]2O)co1
active: all assays above

CC(C)=CC(=O)N(C)C/C=C/CC/C=C/C=C/CC(C)(O)c1nc(C[C@@H](C)[C@H]2OC(=O)c3c(ccc(C)c3O)[C@@H]2O)co1 (some centres undefined)
active: all assays above

C=C(C/C=C/C=C/CC/C=C/CN(C)C(=O)/C=C(\C)CO)c1nc(C[C@@H](C)[C@H]2OC(=O)c3c(ccc(C)c3O)[C@@H]2O)co1
active: all assays above
